Measured values taken from US20250241297A1, “TERNARY SOLVENT SYSTEMS FOR STABLE PLANT GROWTH REGULATOR FORMULATIONS” (priority 2024, published 2025).
Where two headings read alike, the source gives them in different places.

Assays:
[1] = Storage stability of aqueous formulation CE1, PGR content after 1 year; format: physicochemical; details: in aqueous formulation CE1, 1 year of storage
Protocol: Comparative Example 1: A combination of three PGRs (kinetin, GA3, and IBA) were dissolved in water along with a defoamer and a phosphate ester surfactant at the ratios specified in Table CE1: […] This is typical behavior for an aqueous system containing these PGRs.

[2] = Accelerated aging test of formulation E1, 54° C. for 2 weeks; format: physicochemical; details: for 2-Weeks at 54° C.: in formulation E1, after 2 weeks at 54° C.; for Initial Assay: in formulation E1, before accelerated aging; for Percent Change: in formulation E1, initial vs 2 weeks at 54° C.
Protocol: Example 1 (E1): A combination of three PGRs (kinetin, GA3, and IBA) were dissolved in a ternary solvent system containing a high dielectric solvent (DMSO), a medium dielectric solvent (HALLCOMID® M-8-10), and a low dielectric solvent (methyl soyate) with surfactants (ETHOX® CO-40 and ETHFAC® 140) at the ratios specified in Table E1:
The formulation was tested in an accelerated aging test by storing the sample at 54° C. for 2 weeks and measuring the content of the PGRs before and after testing. This was to follow the EPA's Office of Pesticide Programs guidelines for product chemistry and stability.
Table 2 illustrates initial formulation stability and stability at two-weeks as a percentage change in the amount (vol. %) of each PGR: […]

[3] = Solubility of PGRs in solvents
Text: In some examples, the ratios of the plurality of non-aqueous solvents may be selected based on a relative amount and type of PGR compound selected for the agrochemical formulation. For example, an amount (e.g., vol. %) of a high dielectric solvent may be selected to fully dissolve selected amounts (e.g., vol. %) of one or more PGRs of the plurality of selected PGRs, which may only be soluble, or at least more soluble in, the high dielectric solvent. Additionally, an amount of (e.g., vol. %) of a medium dielectric solvent and/or a low dielectric solvent may be selected for similar reasons.

[4] = cited from earlier work

detected level of active ingredient after 1 year of storage [1] | loss of active ingredient after 1 year of storage [1] [%] | 2-Weeks at 54° C. [2] [%] | Initial Assay [2] [%] | Percent Change [2] [%] | solubility in DMSO [3] [%] | solubility in vegetable oil or modified vegetable oil solvents [3] | Compound | solubility in DMSO ([3]; DMSO) [%] | solubility in vegetable oil or modified vegetable oil solvents ([3]; vegetable oil or modified vegetable oil solvents) | chemical breakdown in water [4]
not detected | 100 | 0.047 | 0.047 | 0.00 |  |  | O=C(O)CCCc1c[nH]c2ccccc12 [IBA, indole-3-butyric acid] |  |  | facilitates the chemical breakdown
0.0015% | 83 | 0.090 | 0.099 | 9.09 | 3.3 | virtually insoluble | c1coc(CNc2ncnc3[nH]cnc23)c1 [kinetin] |  |  | 

Compound | detected level of active ingredient after 1 year of storage [1] | loss of active ingredient after 1 year of storage [1] [%] | 2-Weeks at 54° C. [2] [%] | Initial Assay [2] [%] | Percent Change [2] [%] | solubility in DMSO [3] [%] | solubility in vegetable oil or modified vegetable oil solvents [3] | solubility in DMSO ([3]; DMSO) [%] | solubility in vegetable oil or modified vegetable oil solvents ([3]; vegetable oil or modified vegetable oil solvents) | chemical breakdown in water [4]
C=C1C[C@]23C[C@@]1(O)CC[C@H]2[C@@]12C=C[C@H](O)[C@@](C)(C(=O)O1)[C@@H]2[C@@H]3C(=O)O [GA3, (3S,3aS,4S,4aS,7S,9aR,9bR,12S)-7,12-Dihydroxy-3-methyl-6-methylene-2-oxoperhydro-4a,7-methano-9b,3-propenoazuleno[1,2-b]furan-4-carboxylic acid] | 0.0005% | 91 | 0.055 | 0.058 | 5.17 |  |  | 1.5 | virtually insoluble | 
